These are literature values, as cited in patent US12702640B2, “Drug implants containing enzalutamide and methods of use thereof” (The Regents of the University of California, priority 2021, dated 2026).

The conditions of this data set: assuming 240 mg daily dose; systemic (e.g., oral) administration.

Regarding `CNC(=O)c1ccc(N2C(=S)N(c3ccc(C#N)c(C(F)(F)F)c3)C(=O)C2(C)C)cc1F` [enzalutamide, Enzalutamide], the “steady state blood plasma concentration” value is on record as “about 6 μg/ml”.
